From ChEMBL document CHEMBL1146141, “Synthesis of constrained ceramide analogs and their potent antileukemic activities” (Bioorg Med Chem Lett, 2006) come the findings set out here.

The experiment has as its system HL-60. The experiment is described as follows: Antileukemic activity against human leukemia HL60 cells at 20 uM. Type of experiment: functional, cell-based.

SMILES strings stand for the structures. Calls of active or inactive are those of the source. The rule behind the calls is not given here.

On to `CCCCCCCCCCCCC/C=C/[C@@H](O)[C@@H]1COC(=O)N1C(=O)CCCCCCCCCCCCCCC`, for which the outcome was inactive.

Turning to `CCCCCCCCCCCCC/C=C/[C@@H](O)[C@@H]1COC(=O)N1C(=O)c1ccccc1`, the result was Active.

`CCCCCCCCCCCCC/C=C/[C@@H](O)[C@@H]1COC(=O)N1C(=O)CC`: the outcome was Active.
